# Laboratory results as given in US6552088B2, “Biphenyl derivatives” (Hoffmann-La Roche Inc., priority 1999, dated 2003).
# Experiments:
# human NK-1 receptor = target: T1, human NK-1 receptor (Homo sapiens, UniProt P25103); assay: Affinity for the NK-1 receptor, [3H] substance P displacement binding assay; conditions: human NK-1 receptors in CHO cells (Semliki virus expression system); [3H] substance P 0.6 nM; 60 min at room temperature; read-out: affinity to the NK-1 receptor, given as pKi (converted)
# T1 construct: expressed in transfected cells; host or cells: CHO cells infected using the Semliki virus expression system; membrane suspension
# Description: The affinity of test compounds for the NK-1 receptor was evaluated at human NK-1 receptors in CHO cells infected with the human NK-1 receptor (using the Semliki virus expression system) and radiolabelled with [3H] substance P (final concentration 0.6 nM). Binding assays were performed in HEPES buffer (50 mM, pH 7.4) containing BSA (0.04%) leupeptin (8 μg/ml), MnCl2 (3 mM) and phosphoramidon (2 μM). Binding assays consisted of 250 μl of membrane suspension (1.25×10^5 cells/assay tube), […] of buffer of displacing agent and 125 μl of [3H] substance P. Displacement curves were determined with at least seven concentrations of the compound. The assay tubes were incubated for 60 min at room temperature after which time the tube contents were rapidly filtered under vacuum through GF/C filters presoaked for 60 min with PEI (0.3%) with 2×2 ml washed of HEPES buffer (50 mM, pH 7.4). The radioactivity retained on the filters was measured by scintillation counting. All assays were performed in triplicate in at least 2 separate experiments.
# T1 sequence (P25103 whole entry): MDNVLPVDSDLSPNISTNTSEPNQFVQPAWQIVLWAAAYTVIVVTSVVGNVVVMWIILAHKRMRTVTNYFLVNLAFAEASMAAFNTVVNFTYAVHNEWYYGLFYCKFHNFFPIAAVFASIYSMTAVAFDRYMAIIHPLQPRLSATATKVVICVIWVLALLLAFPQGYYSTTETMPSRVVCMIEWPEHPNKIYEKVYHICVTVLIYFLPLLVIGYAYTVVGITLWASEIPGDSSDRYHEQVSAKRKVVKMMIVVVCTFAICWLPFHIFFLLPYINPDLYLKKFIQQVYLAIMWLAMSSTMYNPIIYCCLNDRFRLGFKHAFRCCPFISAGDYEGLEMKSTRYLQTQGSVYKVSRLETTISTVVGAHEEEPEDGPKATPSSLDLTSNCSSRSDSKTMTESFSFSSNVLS
Structure (SMILES),melting point,Ki (human NK-1 receptor)
"CN(Cc1cc(Cl)cc(Cl)c1)C(=O)c1ccccc1-c1ccccc1 [Example 2, Biphenyl-2-carboxylic acid (3,5-dichloro-benzyl)-methyl-amide]",126 to 128 °C,–
"Cc1cc(CN(C)C(=O)c2ccccc2-c2ccccc2)cc(C(F)(F)F)c1 [Example 3, Biphenyl-2-carboxylic acid methyl-(3-methyl-5-trifluoromethyl-benzyl)-amide]",126.7 to 127.1 °C,–
"Cc1ccccc1-c1ccc(N)cc1N(C)C(=O)C(C)(C)c1cc(C(F)(F)F)cc(C(F)(F)F)c1 [Example 18, N-(4-Amino-2′-methyl-biphenyl-2-yl)-2-(3,5-bis-trifluoromethyl-phenyl)-N-methyl-isobutyramide]",–,5.25 nM
"CNc1ccc(-c2ccccc2C)c(N(C)C(=O)C(C)(C)c2cc(C(F)(F)F)cc(C(F)(F)F)c2)c1 [Example 20, 2-(3,5-Bis-trifluoromethyl-phenyl)-N-methyl-N-(2′-methyl-4-methylamino-biphenyl-2-yl)-isobutyramide]",–,9.77 nM
"Cc1ccccc1-c1cc(N2CCN(C)CC2)ccc1C(=O)N(C)Cc1cc(C(F)(F)F)cc(C(F)(F)F)c1 [Example 27, 2′-Methyl-5-(4-methyl-piperazin-1-yl)-biphenyl-2-carboxylic acid (3,5-bis-trifluoromethyl-benzyl)-methyl-amide]",–,1.45 nM
